# Experimental data as given in patent US20100298141A1, “SUBSTITUTED PYRIDINE N-OXIDE HERBICIDES” (E. I. DU PONT DE NEMOURS AND COMPANY, priority 2007, published 2010).
# Tests used:
# barnyardgrass [1] = test: Test A pre-/postemergence greenhouse test; type: in vivo, Echinochloa crus-galli; conditions: for Barnyardgrass plant response rating: 0 to 100 scale
# Procedure, shortened: (§1)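 Greenhouse herbicide screen, pre- and postemergence in parallel. Soil: loam plus sand. Formulation: non-phytotoxic solvent mix with surfactant. Postemergence stage: one to two leaves, 2–10 cm height. Evaluation: visual injury, compared with untreated controls, about 10 days after treatment.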
# crabgrass = test: Test A pre-/postemergence greenhouse test; type: in vivo, Digitaria sanguinalis; conditions: for Crabgrass, Large plant response rating: 0 to 100 scale
# Procedure, shortened: as §1
# giant foxtail = test: Test A pre-/postemergence greenhouse test; type: in vivo, Setaria faberi; conditions: for Foxtail, Giant plant response rating: 0 to 100 scale
# Procedure, shortened: as §1
# velvetleaf [2] = test: Test A pre-/postemergence greenhouse test; type: in vivo, Abutilon theophrasti; conditions: for Velvetleaf plant response rating: 0 to 100 scale
# Procedure, shortened: as §1
# blackgrass = test: Test C pre-/postemergence test; type: in vivo, Alopecurus myosuroides; conditions: for Plant response rating, Blackgrass: scale 0 to 100, 0 no effect, 100 complete control
# Procedure, shortened: (§2)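 Seeds were planted and treated preemergence with test chemical in a non-phytotoxic solvent mixture containing surfactant. Postemergence applications of the same formulation went onto plants 2 to 18 cm tall (1- to 4-leaf stage). A dash marks no test result.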
# downy brome = test: Test C pre-/postemergence test; type: in vivo, Bromus tectorum; conditions: for Plant response rating, Bromegrass, Downy: scale 0 to 100, 0 no effect, 100 complete control
# Procedure, shortened: as §2
# green foxtail = test: Test C pre-/postemergence test; type: in vivo, Setaria viridis; conditions: for Plant response rating, Foxtail, Green: scale 0 to 100, 0 no effect, 100 complete control
# Procedure, shortened: as §2
# catchweed bedstraw = test: Test C pre-/postemergence test; type: in vivo, Galium aparine
# Procedure, shortened: as §2
# Surinam grass = test: Test C pre-/postemergence test; type: in vivo, Brachiaria decumbens; conditions: for Surinam Grass plant response rating: preemergence, scale 0 (no effect) to 100 (complete control); for Plant response rating, Surinam Grass: scale 0 to 100, 0 no effect, 100 complete control
# Procedure, shortened: as §2
# woolly cupgrass = test: Test C pre-/postemergence test; type: in vivo, Eriochloa villosa; conditions: for Plant response rating, Cupgrass, Woolly: scale 0 to 100, 0 no effect, 100 complete control
# Procedure, shortened: as §2
# lambsquarters = test: Test C pre-/postemergence test; type: in vivo, Chenopodium album; conditions: for Plant response rating, Lambsquarters: scale 0 to 100, 0 no effect, 100 complete control
# Procedure, shortened: as §2
# pigweed = test: Test C pre-/postemergence test; type: in vivo, Amaranthus retroflexus; conditions: for Plant response rating, Pigweed: scale 0 to 100, 0 no effect, 100 complete control
# Procedure, shortened: as §2
# common ragweed = test: Test C pre-/postemergence test; type: in vivo, Ambrosia elation; conditions: for Plant response rating, Ragweed: scale 0 to 100, 0 no effect, 100 complete control
# Procedure, shortened: as §2
# soybean = test: Test C pre-/postemergence test; type: in vivo, Glycine max; conditions: for Plant response rating, Soybean: scale 0 to 100, 0 no effect, 100 complete control
# Procedure, shortened: as §2
# velvetleaf [3] = test: Test C pre-/postemergence test; type: in vivo, Abutilon theophrasti; conditions: Postemergence; for Plant response rating, Velvetleaf: scale 0 to 100, 0 no effect, 100 complete control
# Procedure, shortened: as §2
# barnyardgrass [4] = test: Test C flooded paddy test; type: in vivo, Echinochloa crus-galli; conditions: Flood
# Procedure, shortened: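 Under a constant 3 cm flood, test compounds went directly into the paddy water. Following 13 to 15 days of greenhouse growth, treated species and controls were compared by eye.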
# [5] = Postemergence, 125 g ai/ha, 0 is no effect, 100 is complete control
# [6] = Postemergence, 500 g ai/ha, 0 is no effect, 100 is complete control
# [7] = Preemergence, 125 g ai/ha, 0 no effect, 100 complete control
# [8] = Preemergence, 500 g ai/ha, 0 to 100 scale where 0 is no effect and 100 is complete control
# [9] = 31 g ai/ha, Preemergence, scale 0 to 100
# [10] = 62 g ai/ha, preemergence, scale 0 (no effect) to 100 (complete control)
# [11] = preemergence, 125 g ai/ha, scale 0 (no effect) to 100 (complete control)
compound,measurement,setting,value
CC(c1c(C(F)(F)F)nn(C)c1OC(F)F)S(=O)(=O)c1cccc[n+]1[O-] (stereo not drawn) [Compound 5],Barnyardgrass plant response rating,barnyardgrass [1]; [5],80
same,Barnyardgrass plant response rating,barnyardgrass [1]; [6],80
same,Barnyardgrass plant response rating,barnyardgrass [1]; [7],70
same,"Plant response rating, Barnyardgrass",barnyardgrass [1]; [8],90
same,"Crabgrass, Large plant response rating",crabgrass; [5],80
same,"Crabgrass, Large plant response rating",crabgrass; [6],90
same,"Crabgrass, Large plant response rating",crabgrass; [7],80
same,"Plant response rating, Crabgrass, Large",crabgrass; [8],100
same,"Foxtail, Giant plant response rating",giant foxtail; [5],90
same,"Foxtail, Giant plant response rating",giant foxtail; [6],90
same,"Foxtail, Giant plant response rating",giant foxtail; [7],90
same,"Plant response rating, Foxtail, Giant",giant foxtail; [8],100
same,Velvetleaf plant response rating,velvetleaf [2]; [5],60
same,Velvetleaf plant response rating,velvetleaf [2]; [6],80
same,Velvetleaf plant response rating,velvetleaf [2]; [7],90
same,"Plant response rating, Velvetleaf",velvetleaf [2]; [8],90
same,Blackgrass plant response rating,blackgrass; [9],80
same,Blackgrass plant response rating,blackgrass; [10],100
same,"Plant response rating (0 to 100), Blackgrass","blackgrass; Postemergence, 31 g ai/ha",0
same,"Plant response rating, Blackgrass","blackgrass; Postemergence, 62 g ai/ha",0
same,"Plant response rating, Blackgrass","blackgrass; Postemergence, 250 g ai/ha",40
same,"Plant response rating (0 to 100), Blackgrass","blackgrass; Preemergence, 250 g ai/ha",100
same,Blackgrass plant response rating,blackgrass; [11],100
same,"Bromegrass, Downy plant response rating",downy brome; [9],0
same,"Bromegrass, Downy plant response rating",downy brome; [10],20
same,"Plant response rating (0 to 100), Bromegrass, Downy","downy brome; Postemergence, 31 g ai/ha",0
same,"Plant response rating, Bromegrass, Downy","downy brome; Postemergence, 62 g ai/ha",0
same,"Plant response rating, Bromegrass, Downy","downy brome; Postemergence, 125 g ai/ha",0
same,"Plant response rating, Bromegrass, Downy","downy brome; Postemergence, 250 g ai/ha",0
same,"Plant response rating (0 to 100), Bromegrass, Downy","downy brome; Preemergence, 250 g ai/ha",60
same,"Bromegrass, Downy plant response rating",downy brome; [11],25
same,"Foxtail, Green plant response rating",green foxtail; [9],100
same,"Foxtail, Green plant response rating",green foxtail; [10],100
same,"Plant response rating (0 to 100), Foxtail, Green","green foxtail; Postemergence, 31 g ai/ha",0
same,"Plant response rating, Foxtail, Green","green foxtail; Postemergence, 62 g ai/ha",0
same,"Plant response rating, Foxtail, Green","green foxtail; Postemergence, 125 g ai/ha",60
same,"Plant response rating, Foxtail, Green","green foxtail; Postemergence, 250 g ai/ha",65
same,"Plant response rating (0 to 100), Foxtail, Green","green foxtail; Preemergence, 250 g ai/ha",100
same,"Foxtail, Green plant response rating",green foxtail; [11],100
same,Galium plant response rating,catchweed bedstraw; [9],85
same,Galium plant response rating,catchweed bedstraw; [10],90
same,"Plant response rating (0 to 100), Galium","catchweed bedstraw; Preemergence, 250 g ai/ha",100
same,Galium plant response rating,catchweed bedstraw; [11],100
same,Surinam Grass plant response rating,Surinam grass; 62 g ai/ha,70
same,"Plant response rating (0 to 100), Surinam Grass","Surinam grass; Postemergence, 31 g ai/ha",30
same,"Plant response rating (0 to 100), Surinam Grass","Surinam grass; Postemergence, 62 g ai/ha",55
same,"Plant response rating, Surinam Grass","Surinam grass; Postemergence, 125 g ai/ha",60
same,"Plant response rating, Surinam Grass","Surinam grass; Postemergence, 250 g ai/ha",100
same,"Plant response rating (0 to 100), Surinam Grass","Surinam grass; Preemergence, 250 g ai/ha",95
same,Surinam Grass plant response rating,Surinam grass; 125 g ai/ha,70
same,"Cupgrass, Woolly plant response rating",woolly cupgrass; [9],85
same,"Cupgrass, Woolly plant response rating",woolly cupgrass; [10],90
same,"Plant response rating (0 to 100), Cupgrass, Woolly","woolly cupgrass; Postemergence, 31 g ai/ha",0
same,"Plant response rating, Cupgrass, Woolly","woolly cupgrass; Postemergence, 62 g ai/ha",40
same,"Plant response rating, Cupgrass, Woolly","woolly cupgrass; Postemergence, 125 g ai/ha",40
same,"Plant response rating, Cupgrass, Woolly","woolly cupgrass; Postemergence, 250 g ai/ha",50
same,"Plant response rating (0 to 100), Cupgrass, Woolly","woolly cupgrass; Preemergence, 250 g ai/ha",100
same,"Cupgrass, Woolly plant response rating",woolly cupgrass; [11],100
same,Lambsquarters plant response rating,lambsquarters; [9],100
same,Lambsquarters plant response rating,lambsquarters; [10],100
same,"Plant response rating (0 to 100), Lambsquarters","lambsquarters; Postemergence, 31 g ai/ha",0
same,"Plant response rating, Lambsquarters","lambsquarters; Postemergence, 62 g ai/ha",0
same,"Plant response rating, Lambsquarters","lambsquarters; Postemergence, 125 g ai/ha",0
same,"Plant response rating, Lambsquarters","lambsquarters; Postemergence, 250 g ai/ha",0
same,"Plant response rating (0 to 100), Lambsquarters","lambsquarters; Preemergence, 250 g ai/ha",100
same,Lambsquarters plant response rating,lambsquarters; [11],100
same,Pigweed plant response rating,pigweed; [9],100
same,Pigweed plant response rating,pigweed; [10],100
same,"Plant response rating (0 to 100), Pigweed","pigweed; Postemergence, 31 g ai/ha",0
same,"Plant response rating (0 to 100), Pigweed","pigweed; Postemergence, 62 g ai/ha",0
same,"Plant response rating, Pigweed","pigweed; Postemergence, 125 g ai/ha",0
same,"Plant response rating, Pigweed","pigweed; Postemergence, 250 g ai/ha",0
same,"Plant response rating (0 to 100), Pigweed","pigweed; Preemergence, 250 g ai/ha",100
same,Pigweed plant response rating,pigweed; [11],100
same,Ragweed plant response rating,common ragweed; [9],85
same,Ragweed plant response rating,common ragweed; [10],85
same,"Plant response rating (0 to 100), Ragweed","common ragweed; Postemergence, 31 g ai/ha",0
same,"Plant response rating (0 to 100), Ragweed","common ragweed; Postemergence, 62 g ai/ha",5
same,"Plant response rating, Ragweed","common ragweed; Postemergence, 125 g ai/ha",5
same,"Plant response rating, Ragweed","common ragweed; Postemergence, 250 g ai/ha",55
same,"Plant response rating (0 to 100), Ragweed","common ragweed; Preemergence, 250 g ai/ha",100
same,Ragweed plant response rating,common ragweed; [11],100
same,Soybean plant response rating,soybean; [9],0
same,"Plant response rating (0 to 100), Soybean","soybean; Postemergence, 31 g ai/ha",0
same,"Plant response rating (0 to 100), Soybean","soybean; Postemergence, 62 g ai/ha",20
same,"Plant response rating, Soybean","soybean; Postemergence, 125 g ai/ha",35
same,"Plant response rating, Soybean","soybean; Postemergence, 250 g ai/ha",70
same,"Plant response rating (0 to 100), Soybean","soybean; Preemergence, 250 g ai/ha",0
same,"Plant response rating (0 to 100), Velvetleaf",velvetleaf [3]; 31 g ai/ha,0
same,"Plant response rating (0 to 100), Velvetleaf",velvetleaf [3]; 62 g ai/ha,0
same,"Plant response rating, Velvetleaf",velvetleaf [3]; 125 g ai/ha,5
same,"Plant response rating, Velvetleaf",velvetleaf [3]; 250 g ai/ha,50
same,"Plant response rating, Barnyardgrass","barnyardgrass [4]; 31 g ai/ha, scale 0 to 100 (0 no effect, 100 complete control)",70
same,"Plant response rating, Barnyardgrass","barnyardgrass [4]; 62 g ai/ha, scale 0 to 100, 0 no effect, 100 complete control, 13 to 15 days",80
same,"Plant response rating, Barnyardgrass","barnyardgrass [4]; 125 g ai/ha, scale 0 to 100, 0 no effect, 100 complete control, 13 to 15 days",85
same,"Plant response rating, Barnyardgrass","barnyardgrass [4]; 250 g ai/ha, scale 0 to 100 (0 no effect, 100 complete control)",85
